According to the supplement of paper PMC11208160:
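Further: IS621 recombinase and bridge RNA in Escherichia coli cells.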

Experiment: recombinant barcode read abundance after kanamycin selection (control-corrected) (log10(CPM+1)); higher = more efficient recombination; sequences stand for … in AGTGCAGAGAAAATCGGCCAGTTTTCTCTGCCTGCAGTCCGCATGCCGT…AGATTTATGCAGCGGACTGCCTTTCTCCCAAAGTGATAAACCGGACAGTATCATGGACCGGTTTTCCCGGTAATCCGTATTTGCAAGGTTGGTTTCACT; site = the 11-nt target
In short: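 Reported as log10(CPM+1), each value stands for recombination efficiency. That efficiency is the averaged, control-corrected counts per million of barcodes found at recombinant junctions. Cells from a pooled E. coli library pairing targets with IS621 bridge RNA target-binding loops were plated twice on chloramphenicol/ampicillin LB agar (control) and twice on chloramphenicol/ampicillin/kanamycin with 0.1 mM IPTG.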
In the case of “TACTAAGCTTGGGTTCTAACCTGTTGCAT (site TACTAAGCTAA)”, the “recombinant barcode read abundance (log10)” value is reported as 0.149.
For “TACTAAGCTTGGGTTCTAACCTGTTGCAT (site TACTAAGCTAC)”, the “recombinant barcode read abundance (log10)” value was 0.0997.
With “TACTAAGCTTGGGTTCTAACCTGTTGCAT (site TACTAAGCTAG)” the “recombinant barcode read abundance (log10)” value was 0.274.
In the case of “TACTAAGCTTGGGTTCTAACCTGTTGCAT (site TACTAAGCTAT)”, the “recombinant barcode read abundance (log10)” value is reported as 0.523.
For “TACTAAGCTTGGGTTCTAACCTGTTGCGT (site TACTAAGCTAA)”, the “recombinant barcode read abundance (log10)” value was 0.238.
In the case of “TACTAAGCTTGGGTTCTAACCTGTTGCGT (site TACTAAGCTAC)”, the “recombinant barcode read abundance (log10)” value is reported as 1.1.
For “TACTAAGCTTGGGTTCTAACCTGTTGCGT (site TACTAAGCTAG)”, the “recombinant barcode read abundance (log10)” value was 0.122.
With “TACTAAGCTTGGGTTCTAACCTGTTGCGT (site TACTAAGCTAT)” the “recombinant barcode read abundance (log10)” value was 0.149.
In the case of “TACTCAACTTGGGTTCTAACCTGTTGCCT (site TACTAAACTAG)”, the “recombinant barcode read abundance (log10)” value is reported as 0.376.
In the case of “TACTCAACTTGGGTTCTAACCTGTTGCCT (site TACTCAACTAG)”, the “recombinant barcode read abundance (log10)” value is reported as 0.0463.
In the case of “TACTCAACTTGGGTTCTAACCTGTTGCCT (site TACTGAACTAG)”, the “recombinant barcode read abundance (log10)” value is reported as 0.0105.
For “TACTCAACTTGGGTTCTAACCTGTTGCCT (site TACTTAACTAG)”, the “recombinant barcode read abundance (log10)” value was 0.
For “TACTCACCTTGGGTTCTAACCTGTTGCTT (site ACTGGTTCTCG)”, the “recombinant barcode read abundance (log10)” value was 0.022.
For “TACTCACCTTGGGTTCTAACCTGTTGCTT (site TACTCACCTAA)”, the “recombinant barcode read abundance (log10)” value was 0.287.
In the case of “TACTGATCTTGGGTTCTAACCTGTTGCCT (site TAATGATCTAG)”, the “recombinant barcode read abundance (log10)” value is reported as 0.0666.
With “TACTGATCTTGGGTTCTAACCTGTTGCCT (site TACTGATCTAG)” the “recombinant barcode read abundance (log10)” value was 0.461.
In the case of “TACTGATCTTGGGTTCTAACCTGTTGCCT (site TAGTGATCTAG)”, the “recombinant barcode read abundance (log10)” value is reported as 0.0404.
For “TACTGATCTTGGGTTCTAACCTGTTGCCT (site TATTGATCTAG)”, the “recombinant barcode read abundance (log10)” value was 0.0711.
In the case of “TACTTCGCTTGGGTTCTAACCTGTTGCCT (site CACATCGCTAG)”, the “recombinant barcode read abundance (log10)” value is reported as 0.042.
With “TACTTCGCTTGGGTTCTAACCTGTTGCCT (site TACTTCGCTAG)” the “recombinant barcode read abundance (log10)” value was 0.193.
In the case of “TAGAAAGCTTGGGTTCTAACCTGTTGCCA (site TAGAAAGCTTG)”, the “recombinant barcode read abundance (log10)” value is reported as 0.633.
For “TAGAAAGCTTGGGTTCTAACCTGTTGCCA (site TAGGAAGCTTC)”, the “recombinant barcode read abundance (log10)” value was 0.139.
In the case of “TAGAACACTTGGGTTCTAACCTGTTGCTC (site TAGAACACTAA)”, the “recombinant barcode read abundance (log10)” value is reported as 0.421.
In the case of “TAGAACACTTGGGTTCTAACCTGTTGCTC (site TAGAACACTCA)”, the “recombinant barcode read abundance (log10)” value is reported as 0.151.
In the case of “TAGAACACTTGGGTTCTAACCTGTTGCTC (site TAGAACACTGA)”, the “recombinant barcode read abundance (log10)” value is reported as 0.262.
In the case of “TAGAACACTTGGGTTCTAACCTGTTGCTC (site TAGAACACTTA)”, the “recombinant barcode read abundance (log10)” value is reported as 0.0884.
With “TAGAACACTTGGGTTCTAACCTGTTGCTT (site TAGAACACTAA)” the “recombinant barcode read abundance (log10)” value was 0.16.
In the case of “TAGAACACTTGGGTTCTAACCTGTTGCTT (site TAGAACACTCA)”, the “recombinant barcode read abundance (log10)” value is reported as 0.0447.
With “TAGAACACTTGGGTTCTAACCTGTTGCTT (site TAGAACACTGA)” the “recombinant barcode read abundance (log10)” value was 0.153.
With “TAGAACACTTGGGTTCTAACCTGTTGCTT (site TAGAACACTTA)” the “recombinant barcode read abundance (log10)” value was 0.169.
For “TAGAAGACTTGGGTTCTAACCTGTTGCAT (site TAGAAGACTAT)”, the “recombinant barcode read abundance (log10)” value was 1.01.
With “TAGAAGACTTGGGTTCTAACCTGTTGCAT (site TATAAGACTGT)” the “recombinant barcode read abundance (log10)” value was 0.0979.
With “TAGAAGCCTTGGGTTCTAACCTGTTGCCT (site AAGAAGCCTAG)” the “recombinant barcode read abundance (log10)” value was 0.248.
With “TAGAAGCCTTGGGTTCTAACCTGTTGCCT (site CAGAAGCCTAG)” the “recombinant barcode read abundance (log10)” value was 0.43.
For “TAGAAGCCTTGGGTTCTAACCTGTTGCCT (site GAGAAGCCTAG)”, the “recombinant barcode read abundance (log10)” value was 0.06.
For “TAGAAGCCTTGGGTTCTAACCTGTTGCCT (site TAGAAGCCTAG)”, the “recombinant barcode read abundance (log10)” value was 1.11.
With “TAGAAGGCTTGGGTTCTAACCTGTTGCCT (site TAGAAGGCTAA)” the “recombinant barcode read abundance (log10)” value was 0.139.
In the case of “TAGAAGGCTTGGGTTCTAACCTGTTGCCT (site TAGAAGGCTAC)”, the “recombinant barcode read abundance (log10)” value is reported as 0.1.
With “TAGAAGGCTTGGGTTCTAACCTGTTGCCT (site TAGAAGGCTAG)” the “recombinant barcode read abundance (log10)” value was 0.216.
With “TAGAAGGCTTGGGTTCTAACCTGTTGCCT (site TAGAAGGCTAT)” the “recombinant barcode read abundance (log10)” value was 0.325.
In the case of “TAGAAGGCTTGGGTTCTAACCTGTTGCTT (site TAGAAGGCTAA)”, the “recombinant barcode read abundance (log10)” value is reported as 0.805.
With “TAGAAGGCTTGGGTTCTAACCTGTTGCTT (site TAGAAGGCTAC)” the “recombinant barcode read abundance (log10)” value was 0.0392.
For “TAGAAGGCTTGGGTTCTAACCTGTTGCTT (site TAGAAGGCTAG)”, the “recombinant barcode read abundance (log10)” value was 0.0656.
